Results as given in PubChem BioAssay AID1159565 (GlaxoSmithKline (GSK), 2015).
Activity calls are given as the source filed them. The rule behind the calls is not given here.

System: T. cruzi-infected H9C2 cardiomyocytes, high-content imaging
Assay: intracellular T. cruzi amastigote inhibition, imaging, H9C2 host cardiomyocytes, host toxicity (AID 1159565);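 note: infected cells incubated 72 h after plating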
[1] = measured here: H9C2 host cell toxicity
[2] = measured here: amastigotes per cell

Compound	IC50	IC50 [1]	IC50 [2]
COc1ccc(NS(=O)(=O)c2cc(NC(=O)c3ccc([N+](=O)[O-])s3)ccc2OC)cc1	0.1 µM	> 50 µM	0.079 µM
CCN(Cc1cccs1)C(=O)CSc1nnc(-c2ccc3c(c2)OCO3)o1	2.5 µM	> 50 µM	1.6 µM
O=C(CCCNC(=O)c1ccc(Cl)cc1)Nc1nc(-c2ccccn2)cs1	25 µM	25 µM	10 µM
COCCn1c(-c2ccccc2)cnc1NCc1ccccc1OC	16 µM	> 50 µM	6.3 µM
CC(CCc1ccccc1)NC(=O)CN(Cc1ccccn1)Cc1ccccn1 (stereo not drawn)	10 µM	> 79 µM	3.2 µM
Cc1ccc2ccc(C(Nc3ccccn3)c3cccnc3)c(O)c2n1 (stereo not drawn)	0.2 µM	32 µM	0.2 µM
CC(=O)Nc1cccc(Nc2ncnc3nc[nH]c23)c1	40 µM	> 50 µM	25 µM
Cc1cccnc1NC(=O)c1cccc(OCc2c(C)noc2C)c1	50 µM	2.5 µM	40 µM
CC(c1ccc2c(c1)CCCC2)N(C)c1ncc2c(N)nc(N)nc2n1 (stereo not drawn)	0.032 µM	10 µM	0.01 µM
CN(C)CCN(C)Cc1ccc(F)cc1NS(=O)(=O)c1ccc(Cl)c(Cl)c1	2.5 µM	6.3 µM	2 µM
Cc1ccc(S(=O)(=O)Nc2ccc(CN3CCN(C(=O)c4cccc(C#N)c4)CC3)cc2)cc1	0.5 µM	> 50 µM	0.4 µM
O=C1CN(C2CCCc3c(OCc4ccncc4)cccc32)C(=O)N1C1CCCCC1 (stereo not drawn)	0.016 µM	> 50 µM	0.013 µM
COc1ccc(NS(=O)(=O)c2cc(NC(=O)Cc3ccc(C)cc3)ccc2N2CCOCC2)cc1	5 µM	> 50 µM	2.5 µM
N#Cc1cccc(CN2CCC(N(Cc3cccnc3)C(=O)c3cc(F)c(F)cc3F)CC2)c1	0.4 µM	> 50 µM	0.32 µM
CCn1nccc1CN(C)C(=O)C=Cc1ccc(Cl)cc1	0.32 µM	> 50 µM	0.32 µM
O=C(NCC1CCCCN1C(=O)c1cccc2ccccc12)c1ccccc1 (stereo not drawn)	5 µM	> 50 µM	3.2 µM
COc1ccc2ncc(F)c(CCN3CC[C@@H](NC(=O)c4cc5c(s4)CCC5)[C@@H](O)C3)c2n1	0.13 µM	0.13 µM	0.05 µM
COc1cccc(CN(C)Cc2nc(N)c3c(C)c(C)sc3n2)c1	16 µM	> 50 µM	16 µM
CNc1c(C(N)=O)c(-c2ccc3scnc3c2)nn1CC(F)(F)F	0.25 µM	> 50 µM	0.16 µM
N#Cc1c(Oc2cccc(Cl)c2)cccc1[N+](=O)[O-]	0.63 µM	16 µM	0.13 µM
Cc1cc(Oc2cc(Cl)c(Cl)cc2Cl)n2ncnc2n1	25 µM	7.9 µM	10 µM
O=C(c1ccc(OCCCc2cnc[nH]2)cc1)C1CC1	1.6 µM	> 50 µM	1.3 µM
COC(=O)c1ccc(-c2cnc3ccc(NCc4ccccn4)nn23)cc1	7.9 µM	> 50 µM	5 µM
O=C(NCCNc1noc(-c2ccc([N+](=O)[O-])cc2)n1)c1ccc(Cl)cc1	> 50 µM (inactive)	> 50 µM	1.3 µM

Compound	IC50	IC50 [1]	IC50 [2]
CCCCc1cc(Nc2cc(C3CCC3)[nH]n2)nc(N2CCC2C(N)=O)n1 (stereo not drawn)	3.2 µM	0.79 µM	1.6 µM
COc1ccc(S(=O)(=O)NCc2ccc(-c3ccc(CN(C)CCO)cc3)cc2)cc1	2.5 µM	> 50 µM	1.3 µM
Cc1ccc(Nc2nc(C3CCCN3Cc3ccn[nH]3)cs2)nc1 (stereo not drawn)	2 µM	10 µM	2 µM
CCCc1cc(N)nc(-c2cc(CCC)cc(N)n2)c1	0.63 µM	0.2 µM	0.5 µM
O=C(c1cccc(Nc2ncc(-c3ccc4c(c3)OCO4)cn2)c1)N1CCOCC1	1.3 µM	6.3 µM	0.79 µM
NC(N)=Nc1nc(-c2ccc(NC(N)=NCCN3CCCC3)cc2)cs1	> 50 µM (inactive)	> 50 µM	> 50 µM
Cc1nn2c(NCCCO)c3c(nc2c1-c1cccs1)CCC3	50 µM	> 50 µM	5 µM
CC(C)Oc1ccc(C(=O)Nc2ccc(N3CCOCC3)c(Cl)c2)cc1	1.3 µM	> 50 µM	1.3 µM
COc1ccc2nc(N(Cc3cccnc3)C(=O)C3CCC3)sc2c1	0.13 µM	> 50 µM	0.1 µM
COc1ccc(NS(=O)(=O)c2cc(-c3cc(C)[nH]n3)ccc2C)cc1OC	2 µM	> 50 µM	1.3 µM
CC(C)(C)Nc1nc(Nc2ccc3c(c2)CS(=O)(=O)C3)nc2[nH]ccc12	32 µM	1 µM	20 µM
CCc1c(C)nc(-n2nc(C)cc2NC(=O)COc2ccccc2F)[nH]c1=O	0.63 µM	2.5 µM	0.16 µM
COc1ccc2c(Cl)c(C(=O)N3CCC3)sc2c1Cl	2.5 µM	> 50 µM	0.79 µM
CC(C(=O)Nc1ccccc1F)N(C)CC(=O)Nc1cccc2ccccc12 (stereo not drawn)	0.5 µM	> 50 µM	0.32 µM
Cc1nn(C2CCS(=O)(=O)C2)c(C)c1CN(C)C(=O)C=Cc1sc2ccccc2c1Cl (stereo not drawn)	0.5 µM	> 50 µM	0.32 µM
CC(C)(C)Nc1nc(-c2ccccn2)nc2ccccc12	2 µM	0.32 µM	1.3 µM
O=C(COc1ccccc1)Nc1ccccc1C(=O)Nc1nccs1	> 50 µM (inactive)	> 50 µM	> 50 µM
O=C(CN1CCN(c2ccccn2)CC1)Nc1cc(S(=O)(=O)N2CCCCCC2)ccc1Cl	7.9 µM	> 50 µM	6.3 µM
Cc1ccc(S(C)(=O)=O)cc1Nc1nccc(-c2sc(N)nc2-c2ccccc2)n1	0.13 µM	5 µM	0.079 µM
CCc1nn(-c2ncc(F)c(NC(C)C)n2)c(N)c1C1CCCCC1	3.2 µM	1 µM	1.6 µM
COc1ccc2ncc(=O)n(CCN3CC[C@H](NCc4ncc(Cl)c5[nH]ncc45)[C@H](O)C3)c2n1	3.2 µM	> 50 µM	1.6 µM
Cc1c(C(=O)NCCCCn2ccnc2)oc2c(C)cccc12	0.5 µM	> 50 µM	0.5 µM
N#Cc1cc(-c2ccnc(Nc3cccc(CN4CCOCC4)c3)n2)ccc1NCCN	32 µM	7.9 µM	16 µM
CNc1nc(C)nc(N2CCc3cc(C(=O)NCc4ccc(-c5nccn5C)cc4Cl)ccc32)n1	13 µM	50 µM	5 µM

Compound	IC50	IC50 [1]	IC50 [2]
COc1ccccc1CNc1cc(C2CC2)nc(-c2nccn2C)n1	0.79 µM	0.63 µM	1 µM
N#Cc1cccc(Nc2nccc(N3CCC(NS(=O)(=O)c4cccc(C#N)c4)CC3)n2)c1	7.9 µM	32 µM	3.2 µM
CCCCN(C(=O)c1ccc(NC(=O)C(C)C)cc1)c1ccccc1	> 50 µM (inactive)	> 50 µM	10 µM
N#CN1CC[C@@H](NC(=O)Nc2ccccc2Oc2ccccc2)C1	4 µM	20 µM	5 µM
CS(=O)(=O)c1cccc(CNC(=O)c2cncc(N3CCN(c4ccc(F)cc4)CC3)c2)c1	0.4 µM	> 50 µM	0.25 µM
CCCc1nc2nc(N)nc(N)c2cc1CC	0.32 µM	13 µM	0.079 µM
CN1C(=O)c2ccccc2Sc2ccc(NC(=O)NCc3ccco3)cc21	13 µM	25 µM	6.3 µM
COc1cc(-c2noc(CC#N)n2)ccc1OC(F)F	40 µM	32 µM	25 µM
CCCN(Cc1ccc(OC)c(OC)c1)Cc1cc(=O)c2c(C)cc(C)cc2[nH]1	2 µM	> 50 µM	0.5 µM
Nc1nc(-c2ccccc2)cc(-c2nc3ncccc3[nH]2)n1	2 µM	13 µM	1.6 µM
CC(C)c1cc(C(=O)N2CCCC(c3cc4ncccc4[nH]3)C2)on1 (stereo not drawn)	3.2 µM	> 50 µM	1 µM
Cc1cc(-c2cccc3ccccc23)nc2nc(N)nc(N)c12	> 50 µM (inactive)	> 50 µM	32 µM
CCOc1ccc(CN(C)Cc2nc(N)nc(Nc3ccc(C)cc3)n2)cc1	5 µM	3.2 µM	5 µM
FC(F)(F)c1cc(C2CCCN(Cc3c[nH]c4ccccc34)C2)nc2ncnn12 (stereo not drawn)	10 µM	> 50 µM	6.3 µM
Cc1ccccc1NS(=O)(=O)c1ccc2[nH]cc(C(=O)NC3CCCCC3)c(=O)c2c1	16 µM	25 µM	10 µM
O=C(Nc1ccc(S(=O)(=O)N2CCCC2)cc1)c1ccc([N+](=O)[O-])s1	0.2 µM	1.6 µM	0.2 µM
COc1cc(F)c2ncc(F)c(CCN3CC[C@H](NCc4cc5c(cn4)OCS5)[C@@H](O)C3)c2c1	0.25 µM	> 50 µM	0.2 µM
CCC(CC)C(=O)Nc1cccc(C(=O)Nc2nnc(C3CCCCC3)s2)c1	25 µM	> 50 µM	16 µM
COc1ccc(CN(C)Cc2ccncc2)cc1-c1ccc(S(=O)(=O)NC2CCC2)s1	0.63 µM	10 µM	0.5 µM
c1ccc2c(CCOc3nccnc3-c3ccncc3)c[nH]c2c1	0.16 µM	> 50 µM	0.16 µM
Cc1ccc(NC(=O)C(C)n2nc([N+](=O)[O-])c(Br)c2C)cc1Cl (stereo not drawn)	6.3 µM	> 50 µM	3.2 µM
OC[C@@H](Nc1nccc(-c2c(-c3ccc(F)cc3)ncn2C2CCNCC2)n1)c1ccccc1	13 µM	2 µM	13 µM
Cc1c(CNC(=O)c2ccc(Cn3cc(Cl)c([N+](=O)[O-])n3)cc2)cnn1C	1.6 µM	> 50 µM	0.79 µM
